What was measured:
[1] = test system: Aptamer 2 (Apt2) (RNA, aptamer) UCGCGUCUAGCCCAUUGAUAGGCCCGA; test: electrochemical impedance (EIS); details: 0.1 M KCl, 3 mM MgCl2; 100 µM; response about 15 times lower than with NH4+
[2] = test system: Aptamer 1 (Apt1) (RNA, aptamer) CCAUGUAAGCGCGGUACUCUUACGUGA; test: electrochemical impedance (EIS); details: 0.1 M KCl, 3 mM MgCl2; 100 µM; response about 15 times lower than with NH4+
[3] = test system: Aptamer 3 (Apt3) (RNA, aptamer) UCCACGUGGUGCCAUACUCCGGCGUGG; test: electrochemical impedance (EIS); details: 0.1 M KCl, 3 mM MgCl2; 100 µM; response about 15 times lower than with NH4+
[4] = test system: Control (random sequence) (RNA, other) CUGAAGGCAGUCCGGUGCCCGGCCGGG; test: electrochemical impedance (EIS); details: 0.1 M KCl, 3 mM MgCl2; PBS, pH about 7, 15 min incubation; tested up to 500 mM
[5] = test system: Aptamer 3 (Apt3) (RNA, aptamer) UCCACGUGGUGCCAUACUCCGGCGUGG; test: electrochemical impedance (EIS), Langmuir-Hill fit; details: 0.1 M KCl, 3 mM MgCl2; PBS, pH about 7, 1 mM [Fe(CN)6]3-/4-, 15 min incubation
[6] = test system: Aptamer 1 (Apt1) (RNA, aptamer) CCAUGUAAGCGCGGUACUCUUACGUGA; test: electrochemical impedance (EIS), Langmuir-Hill fit; details: 0.1 M KCl, 3 mM MgCl2; PBS, pH about 7, 1 mM [Fe(CN)6]3-/4-, 15 min incubation
[7] = test system: Aptamer 5 (Apt5) (RNA, aptamer) GCCCUGGGCCGCUCAUUCCCUCUGGCU; test: electrochemical impedance (EIS), Langmuir-Hill fit; details: 0.1 M KCl, 3 mM MgCl2; PBS, pH about 7, 1 mM [Fe(CN)6]3-/4-, 15 min incubation
[8] = test system: Aptamer 2 (Apt2) (RNA, aptamer) UCGCGUCUAGCCCAUUGAUAGGCCCGA; test: electrochemical impedance (EIS), Langmuir-Hill fit; details: 0.1 M KCl, 3 mM MgCl2; PBS, pH about 7, 1 mM [Fe(CN)6]3-/4-, 15 min incubation
[9] = test system: Aptamer 4 (Apt4) (RNA, aptamer) CCUCUCAGGCUUGUACUGCCACGAGGA; test: electrochemical impedance (EIS), Langmuir-Hill fit; details: 0.1 M KCl, 3 mM MgCl2; PBS, pH about 7, 1 mM [Fe(CN)6]3-/4-, 15 min incubation; decimal comma as printed

Row | binding [1] | binding [2] | binding [3] | binding [4] | Kd [5] [mM] | Kd [6] [mM] | Kd [7] [mM] | Kd [8] [mM] | Kd [9] | SMILES
1 | weak | weak | weak |  |  |  |  |  |  | CN(C)C
2 | weak | weak | weak |  |  |  |  |  |  | CNC
3 |  |  |  | no | 131 | 36.59 | 50 | 16.11 | 6,6 mM | N

From article PMC9405846 (2022)
